Test results reported in patent US4057530A, “2-Phenyl-indole derivatives and process for preparing the same” (priority 1974, dated 1977).
Read-outs that look alike come from different tables or passages of the source.

How the values were obtained:
[1] = system: mice; type: in vivo
Protocol: The study of the acute toxicity of the stabilizers listed below was carried out by determining the dose of substance which provoked the death of 50% of the treated animals (LD50). A gummy suspension of the substance under study was administered by oral route to groups of at least ten mice and the following results were observed: […]

[2] = Static thermostability of stabilized resin, simplified method (GARDNER sub-scale), Compound A; conditions: 210° C
Protocol: The stabilizing power of the substances of the invention was studied from two points of view:
These studies were performed with six different formulae of vinyl resins (hereinafter referred to as Compounds).
The different compounds were mixed and calendered in a mixer of which the cylinders were heated to 160° C. The rigid sheets so obtained were then heated in an oven to a temperature between 180° C and 215° C, until incipient carbonization.
A stove with rotating drums, ventilated and equipped with a thermostat was used for this operation. In the trials described hereunder, the behaviour of a sheet containing the stabilizer to be tested was compared to that of a sheet of the same formula but containing 2-phenyl-indole as stabilizer.
2. It is also possible to use a simplified method which is more rapid and with which valid results are also obtained: a reference scale is drawn up with sheets of thermally treated polyvinyl chloride, of which the colourations have been definitely determined in GARDNER degrees as above. A GARDNER sub-scale is thus obtained in polyvinyl chloride sheets which can be directly compared to the sheets to be tested without using the comparator.
Finally, trials were carried out with Stabilizers 15, 16 and 17 and with 2-phenyl-indole. Compound A was used and the temperature was 210° C.

[3] = Extractibility of the stabilizer from Compound A containing Stabilizer 16
Protocol: This study was carried out in accordance with the requirements of the Food and Drug Administration (U.S.A.).
The extractions were performed in semi-rigid bottles, prepared with Compounds Nos. 609 and 675, and with the following solvents: water, an aqueous solution of acetic acid (3%), ethanol-water 50/50, heptane.
The ratio of the volume of solvent to the surface of plastic material exposed to extraction was about 1 cm^2 to […] of solvent, taking into account the geometric characteristics of the bottles.
The quantity of stabilizer extracted was determined by colorimetric assay using p-dimethylaminobenzaldehyde, in accordance with the method described in Analytical Chemistry 36, 425-26 (1964).
The amounts of stabilizer assayed are expressed in μg per liter of extraction solvent or, which is the same, per 1000 cm^2 of surface submitted to extraction.
The same trials were carried out with Compound A containing 2-(4'-dodecylthio-phenyl)-indole (Stabilizer 16) as stabilizer and the following results were obtained: […]

## CCCCSc1ccc(-c2cc3ccccc3[nH]2)cc1 [Stabilizer 15, 2-(4'-butylthio-phenyl)-indole]
[1]; mouse, in vivo, po
  LDO (maximal dose which does not provoke any death): > 3000 mg/kg
[1]; oral, mice, LDO study
  Toxic symptoms: none
[2]
  Static thermostability compared with 2-phenyl-indole: very rapidly found to be superior to 2-phenyl-indole
[2]; 0 min
  Colouration of sheet (GARDNER sub-scale): 1 GARDNER degrees
[2]; 3 min
  Colouration of sheet (GARDNER sub-scale): 1 GARDNER degrees
[2]; 6 min
  Colouration of sheet (GARDNER sub-scale): 2 GARDNER degrees
[2]; 9 min
  Colouration of sheet (GARDNER sub-scale): 5 GARDNER degrees
[2]; 12 min
  Colouration of sheet (GARDNER sub-scale): 10 GARDNER degrees
[2]; 15 min
  Colouration of sheet (GARDNER sub-scale): 13 GARDNER degrees
[2]; 18 min
  Colouration of sheet (GARDNER sub-scale): burnt

## CCCCCCCCCCCCSc1ccc(-c2cc3ccccc3[nH]2)cc1 [Stabilizer 16, 2-(4'-n-dodecylthio-phenyl)-indole]
[3]; 3% aqueous acetic acid, 20 days
  Amount of stabilizer extracted: < 3 μg per liter
[3]; aqueous ethanol 50/50, 9 days
  Amount of stabilizer extracted: < 10 μg per liter
[3]; heptane, 48 hours
  Amount of stabilizer extracted: 175 μg per liter
[3]; water, 10 days
  Amount of stabilizer extracted: < 3 μg per liter
[1]; mouse, in vivo, po
  LDO (maximal dose which does not provoke any death): > 3000 mg/kg
  Toxic symptoms: none
[2]
  Static thermostability compared with 2-phenyl-indole: very rapidly found to be superior to 2-phenyl-indole
[2]; 0 min
  Colouration of sheet (GARDNER sub-scale): 1 GARDNER degrees
[2]; 3 min
  Colouration of sheet (GARDNER sub-scale): 1 GARDNER degrees
[2]; 6 min
  Colouration of sheet (GARDNER sub-scale): 2 GARDNER degrees
[2]; 9 min
  Colouration of sheet (GARDNER sub-scale): 5 GARDNER degrees
[2]; 12 min
  Colouration of sheet (GARDNER sub-scale): 10 GARDNER degrees
[2]; 15 min
  Colouration of sheet (GARDNER sub-scale): 13 GARDNER degrees
[2]; 18 min
  Colouration of sheet (GARDNER sub-scale): burnt
